One assay relates to Bacillus subtilis 168CA. The assay can be described thus: Minimum Inhibitory Concentration (MIC) testing, broth microdilution, Bacillus subtilis. The settings on record: read-out: Bacillus subtilis MICs Activity. Format: cell-based. A digest of the protocol: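 Broth microdilution followed NCCLS M7-A5, in rich broth such as Mueller Hinton, inoculum at OD 0.09 diluted 1:100, compounds in 1.6% DMSO before inoculum. After 16–20 h at 37 °C, MIC was the lowest concentration without visible growth. Score A: ≦8 μg/ml, B: 16–64 μg/ml, C: >64 μg/ml.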
(In general: Broth dilution looks for growth in wells or tubes with falling amounts of substance.)

Assay [1] has as its system Staphylococcus aureus ATCC29213. The assay can be described thus: Minimum Inhibitory Concentration (MIC) testing, broth microdilution, Staphylococcus aureus. Format: cell-based. A digest of the protocol: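 Broth microdilution per NCCLS M7-A5 in Mueller Hinton broth, with compound in 1.6% DMSO and inoculum at OD 0.09 diluted 1:100. Plates incubated 16–20 h at 37°C. MIC is the lowest concentration with no visible growth; scored A ≤8, B 16–64, C >64 μg/ml.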

[2] abbreviates: Staphylococcus aureus ATCC29213, read-out: Staphylococcus aureus MICs Activity.

In brackets after ≈: the same amount, converted by molar mass. Like-named read-outs stand apart in the source and are kept apart here.

In the case of `NC(=O)c1c(F)ccc(OCc2csc(-c3ccccc3)n2)c1F` [Example 233, 2,6-Difluoro-3-[(2-phenyl-1,3-thiazol-4-yl)methoxy]benzenecarboxamide], the MIC (in the assay with Bacillus subtilis 168CA (Bacillus subtilis 168CA); in assay [1] (setting [2])) was below 8 µg/mL in each case.

As to `Cc1cccc(COc2ccc(F)c(C(N)=O)c2F)c1F` [Example 128, 2,6-Difluoro-3-(2-fluoro-3-methyl-benzyloxy)-benzamide], the MIC is below 8 µg/mL with Bacillus subtilis 168CA (Bacillus subtilis 168CA) and 16 to 64 µg/mL (≈ 54.2 to 217 µM) in assay [1] (setting [2]).

As to `COc1ccc(-c2nc(COc3ccc(F)c(C(N)=O)c3F)sc2-c2cncs2)cc1` [Example 164, 2,6-Difluoro-3-[4-(4-methoxy-phenyl)-[5,5′]bithiazolyl-2-ylmethoxy]-benzamide], the MIC in the assay with Bacillus subtilis 168CA (Bacillus subtilis, 168CA) is below 8 µg/mL; in assay [1] (Staphylococcus aureus, ATCC29213, read-out: Staphylococcus aureus MICs Activity), below 8 µg/mL.

In the case of `NC(=O)c1c(F)ccc(OCc2nc3cc(Br)ccc3s2)c1F` [Example 123, 3-(5-Bromo-benzothiazol-2-ylmethoxy)-2,6-difluoro-benzamide], the MIC (with Bacillus subtilis 168CA (Bacillus subtilis 168CA); in assay [1] (setting [2])) was below 8 µg/mL each time.

Turning to `Cc1oc(-c2ccc(Cl)cc2)nc1COc1ccc(F)c(C(N)=O)c1F` [Example 297, 3-[2-(4-Chloro-phenyl)-5-methyl-oxazol-4-ylmethoxy]-2,6-difluoro-benzamide], the MIC (in the assay on Bacillus subtilis 168CA (Bacillus subtilis 168CA); in assay [1] (setting [2])) was below 8 µg/mL each time.

On to `Cc1ccc(COc2ccc(F)c(C(N)=O)c2F)o1` [Example 185, 2,6-Difluoro-3-[(5-methyl-2-furyl)methoxy]benzenecarboxamide], for which the MIC (in the assay on Bacillus subtilis 168CA (Bacillus subtilis 168CA); in assay [1] (setting [2])) was above 64 µg/mL each time.

Consider `NC(=O)c1c(F)ccc(OCC2COc3ccccc3O2)c1F` (stereo not shown) [Example 204, 3-(2,3-Dihydro-1,4-benzodioxin-2-ylmethoxy)-2,6-difluorobenzenecarboxamide], for which the MIC (in the assay on Bacillus subtilis 168CA (Bacillus subtilis 168CA); in assay [1] (setting [2])) was 16 to 64 µg/mL (≈ 49.8 to 199 µM) throughout.

With `NC(=O)c1c(F)ccc(OCc2nc(Cc3ccccc3)no2)c1F` [Example 266, 3-[(3-Benzyl-1,2,4-oxadiazol-5-yl)methoxy]-2,6-difluorobenzenecarboxamide], the MIC (in the assay with Bacillus subtilis 168CA (Bacillus subtilis 168CA); in assay [1] (setting [2])) was 16 to 64 µg/mL (≈ 46.3 to 185 µM) each time.

On to `Cc1ccc(-c2nc(COc3ccc(F)c(C(N)=O)c3F)co2)cc1` [Example 295, 2,6-Difluoro-3-(2-p-tolyl-oxazol-4-ylmethoxy)-benzamide], for which the MIC (with Bacillus subtilis 168CA (Bacillus subtilis 168CA); in assay [1] (setting [2])) was below 8 µg/mL throughout.

On to `CCCCCCOCCOc1cccc(C(N)=O)c1` [Example 54, 3-[2-(Hexyloxy)ethoxy]benzenecarboxamide], for which the MIC (in the assay on Bacillus subtilis 168CA (Bacillus subtilis 168CA); in assay [1] (setting [2])) was 16 to 64 µg/mL (≈ 60.3 to 241 µM) throughout.

For the molecule `CCCCCCOc1cccc(C(N)=O)c1F` [Example 165, 2-Fluoro-3-Hexoxy-benzamide], the MIC (with Bacillus subtilis 168CA (Bacillus subtilis 168CA); in assay [1] (setting [2])) was below 8 µg/mL in each case.

For `COc1ccc(-c2csc(COc3ccc(F)c(C(N)=O)c3F)n2)cc1` [Example 105, 3-[4-(4-Methoxyphenyl)thiazol-2-ylmethoxy]-2,6-difluoro-benzamide], the MIC (in the assay with Bacillus subtilis 168CA (Bacillus subtilis 168CA); in assay [1] (setting [2])) was below 8 µg/mL each time.

Take `NC(=O)c1c(F)ccc(OCc2nc3cc(Cl)ccc3s2)c1Cl` [Example 221, 2-Chloro-3-[(5-chloro-1,3-benzothiazol-2-yl)methoxy]-6-fluorobenzenecarboxamide]: the MIC (in the assay with Bacillus subtilis 168CA (Bacillus subtilis 168CA); in assay [1] (setting [2])) was below 8 µg/mL throughout.

For `NC(=O)c1c(F)ccc(OCc2nc3cc(C4=CCCCC4)ccc3s2)c1F` [Example 314], the MIC with Bacillus subtilis 168CA (Bacillus subtilis 168CA) was below 8 µg/mL; in assay [1] (setting [2]) it was 16 to 64 µg/mL (≈ 40 to 160 µM).

As to `CCC(C)CCOc1cccc(C(N)=O)c1` (stereo not shown) [Example 60, 3-[(3-Methylpentyl)oxy]benzenecarboxamide], the MIC (in the assay on Bacillus subtilis 168CA (Bacillus subtilis 168CA); in assay [1] (setting [2])) was 16 to 64 µg/mL (≈ 72.3 to 289 µM) throughout.

For the molecule `NC(=O)c1cccc(OCCCCO)c1` [Example 42, 3-(4-Hydroxybutoxy)benzenecarboxamide], the MIC (in the assay on Bacillus subtilis 168CA (Bacillus subtilis 168CA); in assay [1] (setting [2])) was 16 to 64 µg/mL (≈ 76.5 to 306 µM) in each case.

Consider `CCCCCCOc1c(F)ccc(C(N)=O)c1F` [Example 80, 2,4-Difluoro-3-(hexyloxy)benzenecarboxamide], for which the MIC (in the assay with Bacillus subtilis 168CA (Bacillus subtilis 168CA); in assay [1] (setting [2])) was 16 to 64 µg/mL (≈ 62.2 to 249 µM) in each case.

For `CC(=O)OCCCCCOc1cccc(C(N)=O)c1` [Example 18, 5-[3-(Aminocarbonyl)phenoxy]pentyl acetate], the MIC (in the assay with Bacillus subtilis 168CA (Bacillus subtilis 168CA); in assay [1] (setting [2])) was above 64 µg/mL throughout.

On to `COc1ccc(-c2nc(COc3ccc(F)c(C(N)=O)c3F)sc2-c2cccc(N)c2)cc1` [Example 284, 2,6-Difluoro-3-[5-(3-amino-phenyl)-4-(4-methoxy-phenyl)-thiazol-2-ylmethoxy]-benzamide], for which the MIC (with Bacillus subtilis 168CA (Bacillus subtilis 168CA); in assay [1] (setting [2])) was below 8 µg/mL throughout.

As to `NC(=O)c1c(F)ccc(OCc2nc(-c3ccc(OC(F)(F)F)cc3)cs2)c1F` [Example 320, 2,6-Difluoro-3-[4-(4-trifluoromethoxy-phenyl)-thiazol-2-ylmethoxy]-benzamide], the MIC (with Bacillus subtilis 168CA (Bacillus subtilis 168CA); in assay [1] (setting [2])) was below 8 µg/mL throughout.

Take `NC(=O)c1c(F)ccc(OCc2nc(-c3ccc(F)cc3)no2)c1F` [Example 245, 2,6-Difluoro-3-[3-(4-fluorophenyl)-1,2,4-oxadiazol-5-yl]methoxybenzenecarboxamide]: the MIC (in the assay with Bacillus subtilis 168CA (Bacillus subtilis 168CA); in assay [1] (setting [2])) was below 8 µg/mL throughout.

On to `NC(=O)c1c(F)ccc(OCc2nnc(C3CC3)s2)c1F` [Example 138, 3-(5-Cyclopropyl-[1,3,4]thiadiazol-2-ylmethoxy)-2,6-difluoro-benzamide], for which the MIC (in the assay with Bacillus subtilis 168CA (Bacillus subtilis 168CA); in assay [1] (setting [2])) was above 64 µg/mL each time.

As for `NC(=O)c1c(F)ccc(OCc2nc3cc(C4CCCC4)ccc3s2)c1F` [Example 317], the MIC (with Bacillus subtilis 168CA (Bacillus subtilis 168CA); in assay [1] (setting [2])) was below 8 µg/mL each time.

On to `NC(=O)c1cc(OCc2nc(-c3ccc(Cl)cc3)cs2)ccc1F` [Example 272, 5-[4-(4-Chloro-phenyl)-thiazol-2-ylmethoxy]-2-fluoro-benzamide], for which the MIC (in the assay on Bacillus subtilis 168CA (Bacillus subtilis 168CA); in assay [1] (setting [2])) was below 8 µg/mL throughout.

As for `NC(=O)c1c(F)ccc(OCc2nc(-c3cccc(O)c3)cs2)c1F` [Example 334, 2,6-Difluoro-3-[4-(3-hydroxy-phenyl)-thiazol-2-ylmethoxy]-benzamide], the values for the MIC (with Bacillus subtilis 168CA (Bacillus subtilis 168CA); in assay [1] (setting [2])) were 16 to 64 µg/mL (≈ 44.2 to 177 µM) and below 8 µg/mL, respectively.

`NC(=O)c1c(F)ccc(OCc2noc(-c3ccccc3)n2)c1F` [Example 239, 2,6-Difluoro-3-[(5-phenyl-1,2,4-oxadiazol-3-yl)methoxy]benzenecarboxamide]: the MIC (in the assay with Bacillus subtilis 168CA (Bacillus subtilis 168CA); in assay [1] (setting [2])) was 16 to 64 µg/mL (≈ 48.3 to 193 µM) throughout.

Turning to `NC(=O)c1c(F)ccc(OCCCCO)c1F` [Example 178, 2,6-Difluoro-3-(4-hydroxybutoxy)benzenecarboxamide], the MIC (in the assay on Bacillus subtilis 168CA (Bacillus subtilis 168CA); in assay [1] (setting [2])) was 16 to 64 µg/mL (≈ 65.2 to 261 µM) throughout.

Turning to `NC(=O)c1c(F)ccc(OCc2csc(-c3ccc(OC(F)(F)F)cc3)n2)c1F` [Example 307, 2,6-Difluoro-3-[2-(4-trifluoromethoxy-phenyl)-thiazol-4-ylmethoxy]-benzamide], the MIC (in the assay with Bacillus subtilis 168CA (Bacillus subtilis 168CA); in assay [1] (setting [2])) was below 8 µg/mL throughout.

For `CC(C)(C)c1ccc(-c2noc(COc3ccc(F)c(C(N)=O)c3F)n2)cc1` [Example 249, 3-(3-[4-(tert-Butyl)phenyl]-1,2,4-oxadiazol-5-ylmethoxy)-2,6-difluorobenzenecarboxamide], the MIC (with Bacillus subtilis 168CA (Bacillus subtilis 168CA); in assay [1] (setting [2])) was below 8 µg/mL each time.

For `NC(=O)c1c(F)ccc(OCc2cc3ccccc3s2)c1F` [Example 206, 3-(1-Benzothiophen-2-ylmethoxy)-2,6-difluorobenzenecarboxamide], the MIC was below 8 µg/mL with Bacillus subtilis 168CA (Bacillus subtilis 168CA) and above 64 µg/mL in assay [1] (setting [2]).

On to `COc1ccc(-c2nc(COc3ccc(F)c(C(N)=O)c3F)sc2C2CC2)cc1` [Example 286, 3-[5-Cyclopropyl-4-(4-methoxy-phenyl)-thiazol-2-ylmethoxy]-2,6-difluoro-benzamide], for which the MIC (in the assay with Bacillus subtilis 168CA (Bacillus subtilis 168CA); in assay [1] (setting [2])) was below 8 µg/mL each time.

Consider `Cc1noc(C)c1-c1nc(COc2ccc(F)c(C(N)=O)c2F)no1` [Example 145, 3-[5-(3,5-Dimethyl-isoxazol-4-yl)-[1,2,4]oxadiazol-3-ylmethoxy]-2,6-difluoro-benzamide], for which the MIC is 16 to 64 µg/mL (≈ 45.7 to 183 µM) with Bacillus subtilis 168CA (Bacillus subtilis 168CA) and above 64 µg/mL in assay [1] (setting [2]).

Turning to `NC(=O)c1c(F)ccc(OCc2cccc(Oc3ccccc3)c2)c1F` [Example 162, 2,6-Difluoro-3-(3-phenoxy-benzyloxy)-benzamide], the MIC (in the assay on Bacillus subtilis 168CA (Bacillus subtilis 168CA); in assay [1] (setting [2])) was below 8 µg/mL in each case.

Turning to `CCCCCC#CCOc1cccc(C(N)=O)c1` [Example 31, 3-(2-Octynyloxy)benzenecarboxamide], the MIC (in the assay on Bacillus subtilis 168CA (Bacillus subtilis 168CA); in assay [1] (setting [2])) was 16 to 64 µg/mL (≈ 65.2 to 261 µM) each time.

As for `Cc1ccc2ccc(COc3ccc(F)c(C(N)=O)c3F)nc2c1` [Example 103, 3-(7-Methylquinolin-2-ylmethoxy)-2,6-difluoro-benzamide], the MIC (with Bacillus subtilis 168CA (Bacillus subtilis 168CA); in assay [1] (setting [2])) was below 8 µg/mL in each case.

In the case of `CCCC/C=C/CCCCOc1cccc(C(N)=O)c1` [Example 58, 3-[(E)-5-Decenyloxy]benzenecarboxamide], the MIC (in the assay on Bacillus subtilis 168CA (Bacillus subtilis 168CA); in assay [1] (setting [2])) was below 8 µg/mL throughout.

Take `CC(Oc1ccc(F)c(C(N)=O)c1F)c1nc(-c2ccc(Cl)cc2)no1` (stereo not shown) [Example 324, 3-{1-[3-(4-Chloro-phenyl)-[1,2,4]oxadiazol-5-yl]-ethoxy}-2,6-difluoro-benzamide]: the MIC (in the assay on Bacillus subtilis 168CA (Bacillus subtilis 168CA); in assay [1] (setting [2])) was below 8 µg/mL each time.

For `Cc1ccc2nc(COc3ccc(F)c(C(N)=O)c3F)sc2c1` [Example 229, 2,6-Difluoro-3-[(6-methyl-1,3-benzothiazol-2-yl)methoxy]benzenecarboxamide], the MIC (with Bacillus subtilis 168CA (Bacillus subtilis 168CA); in assay [1] (setting [2])) was below 8 µg/mL throughout.

For the origin of these results see patent US8088791B2, “Antibacterial agents” (Biots Scientific Management Pty Ltd, priority 2006, dated 2012).
